Data: US12247019B2 (Centaurus Therapeutics, priority 2018, dated 2025)

Biological target: T1, Des1 (Homo sapiens, UniProt O15121)
T1 sequence (O15121 1-323): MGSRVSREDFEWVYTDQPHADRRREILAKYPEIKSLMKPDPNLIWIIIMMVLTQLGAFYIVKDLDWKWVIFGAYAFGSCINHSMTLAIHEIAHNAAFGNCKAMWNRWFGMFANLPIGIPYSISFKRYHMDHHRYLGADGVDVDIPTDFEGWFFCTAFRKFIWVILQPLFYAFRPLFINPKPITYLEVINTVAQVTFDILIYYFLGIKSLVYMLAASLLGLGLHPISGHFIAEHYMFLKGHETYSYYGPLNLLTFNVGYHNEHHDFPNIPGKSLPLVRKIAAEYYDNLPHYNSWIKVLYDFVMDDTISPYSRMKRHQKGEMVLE
Experiment: Jurkat T cell measurement of conversion of dihydroceramide to ceramide (Des1 activity, LC-MS/MS of NBD-C6-ceramide)
Type: cell-based
Parameters: endogenous in cells; host or cells: Jurkat clone E6-1
Details: Jurkat clone E6-1 cells, 10 μM NBD-C6-dihydroceramide, 3 hours at 37° C.; for inhibition at 0.5 µM: 0.5 uM compound, read-out: Des1 % Inhib (0.5 uM); for IC50: read-out: Des1 IC50
Procedure: Jurkat T Cell Measurement of Conversion of Dihydroceramide to Ceramide
Jurkat clone E6-1 cells were grown and then seeded at 10^6 cells/mL in a 96-well plate (400 μL in each well. The cells were administered 100 μL of cell culture media containing 50-μM NBD-C6-dihydroceramide (Des1 substrate), affording a final concentration of substrate of 10 μM. The cells were incubated with substrate at 4° C. for 30 minutes. Following the incubation at 4° C., the cell suspension was centrifuged at 1200 rpm for 3 minutes, and the cell pellet is resuspended in 400 μL of fresh media containing various concentrations of either fenretinide (known Des1 inhibitor control compound) or test article. The final concentrations of control compound and test compounds were tested in a range from 0-10 μM. The cells and compounds were incubated at 37° C. for 3 hours. Following the 3-hour incubation, the plate was centrifuged at 2500 g for 3 minutes at 4° C., followed by collection and transfer of 200 μL of the supernatant to a new 96-well plate with 300 μL of methanol an containing appropriate internal standards for liquid chromatography/tandem mass spectroscopy (LC/MS/MS) analysis (internal standard: 500 nM labetalol and 100 nM alprazolam). The samples were vortexed for 2 minutes followed by centrifugation at 3,220 g for 20 minutes. Following centrifugation, 200 μL of the supernatant was transferred to a new 96-well plate for LC-MS/MS analysis to determine the amount of NBD-C6-ceramide (Des1 product) produced. The assay was typically performed in duplicate. A reduction of at least 30% compared to vehicle control (0 μM test article) is indicative of an active compound, and a reduction of 75% compared to vehicle control is preferred.

For CC(C)CCCCCS(=O)(=O)Nc1ccc(O)cn1 [Example 70, N-(5-Hydroxypyridin-2-yl)-6-methylheptane-1-sulfonamide], the inhibition at 0.5 µM was 83.8% and the IC50 was 110 nM.
With O=C(Nc1ccc(O)cn1)NC1CCN(c2ccc(F)cc2)CC1 [Example 51, 1-[1-(4-fluorophenyl)piperidin-4-yl]-3-(5-hydroxypyridin-2-yl)urea] the inhibition at 0.5 µM was 91.5% and the IC50 was 92 nM.
O=C(Nc1ccc(O)cn1)NC1CCCCC1 [Example 21, 1-cyclohexyl-3-(5-hydroxypyridin-2-yl)urea] gave an inhibition at 0.5 µM of 69.3%.
With O=C(Nc1ccc(O)cn1)N1CCN(c2ncccn2)CC1 [Example 16, N-(5-hydroxypyridin-2-yl)-4-(pyrimidin-2-yl)piperazine-1-carboxamide] the inhibition at 0.5 µM was 31.4%.
Work on O=S(=O)(Nc1ccc(O)cn1)N1CCC(c2ccc(Cl)cc2)CC1 [Example 71, 4-(4-chlorophenyl)-N-(5-hydroxypyridin-2-yl)piperidine-1-sulfonamide] yielded an inhibition at 0.5 µM of 88% and an IC50 of 31 nM.
In the case of O=C(Nc1ccc(O)cn1)N1CCN(c2ccc(F)c(F)c2)CC1 [Example 25, 4-(3,4-difluorophenyl)-N-(5-hydroxypyridin-2-yl)piperazine-1-carboxamide], the IC50 is reported as 9 nM.
With O=S(=O)(Nc1ccc(O)cn1)N1CCN(c2ccc(Cl)cn2)CC1 [Example 73, 4-(5-Chloropyridin-2-yl)-N-(5-hydroxypyridin-2-yl)piperazine-1-sulfonamide] the inhibition at 0.5 µM was 41.9%.
Compound O=C(Nc1ccc(O)cn1)N1CCCN(c2ccc(F)cn2)CC1 [Example 84, 4-(5-fluoropyridin-2-yl)-N-(5-hydroxypyridin-2-yl)-1,4-diazepane-1-carboxamide] has an IC50 of 100 nM.
In the case of O=C(Nc1ccc(O)cc1)N1CCN(c2ccc(F)cc2)CC1 [Example 29, 4-(4-fluorophenyl)-N-(4-hydroxyphenyl)piperazine-1-carboxamide], the inhibition at 0.5 µM is reported as 58.6%.
With O=C(Nc1ccc(O)cn1)OC1CCN(c2ccc(F)cc2)CC1 [Example 53, 1-(4-fluorophenyl)piperidin-4-yl N-(5-hydroxypyridin-2-yl)carbamate] the inhibition at 0.5 µM was 94.8% and the IC50 was 4 nM.
Work on O=C(Nc1ccc(O)cn1)N1CCN(c2cccnc2)CC1 [Example 39, 1-[((5-Hydroxypyridin-2-yl)amino)carbonyl]-4-(pyridin-3-yl)piperazine] yielded an inhibition at 0.5 µM of 9.11%.
O=C(Nc1ccc(O)cn1)N1CCN(c2ccccc2F)CC1 [Example 12, 4-(2-fluorophenyl)-N-(5-hydroxypyridin-2-yl)piperazine-1-carboxamide] showed an inhibition at 0.5 µM of 90.5% and an IC50 of 54 nM.
O=C(Nc1ccc(O)cn1)N1CCC(Cc2ccccc2)CC1 [Example 8, 4-Benzyl-N-(5-hydroxypyridin-2-yl)piperidine-1-carboxamide] showed an inhibition at 0.5 µM of 94.9% and an IC50 of 13 nM.
With O=C(Nc1ccc(O)cn1)c1cccc(-c2ccccc2)c1 [Example 89, N-(5-hydroxypyridin-2-yl)-[1,1-biphenyl]-3-carboxamide] the inhibition at 0.5 µM was 93% and the IC50 was 2.9 nM.
Work on O=C(Nc1ccc(O)cn1)OC1CCN(c2ccc(F)cn2)CC1 [Example 56, 1-(5-fluoropyridin-2-yl)piperidin-4-yl N-(5-hydroxypyridin-2-yl)carbamate] yielded an inhibition at 0.5 µM of 94.7% and an IC50 of 28 nM.
Work on Cn1cc(C2CCC(C(=O)Nc3ccc(O)cn3)CC2)cn1 (stereo not drawn) [Example 90, N-(5-hydroxypyridin-2-yl)-4-(1-methyl-1H-pyrazol-4-yl)cyclohexane-1-carboxamide] yielded an inhibition at 0.5 µM of 39.2%.
O=C(Nc1ccc(O)cn1)N1CCC(c2ccc(Cl)cc2)CC1 [Example 4, 4-(4-Chlorophenyl)-N-(5-hydroxypyridin-2-yl)piperidine-1-carboxamide] was tested, and the inhibition at 0.5 µM was 94.3% and the IC50 was 23 nM.
O=C(Nc1ccc(O)cn1)NC1CCOCC1 [Example 20, 3-(5-Hydroxypyridin-2-yl)-1-(oxan-4-yl)urea] gave an inhibition at 0.5 µM of 19.6%.
In the case of O=C(Nc1ccc(O)cc1)N1CCN(c2ccc(C(F)(F)F)cc2)CC1 [Example 30, N-(4-hydroxyphenyl)-4-[4-(trifluoromethyl)phenyl]piperazine-1-carboxamide], the inhibition at 0.5 µM is reported as 89.7% and the IC50 is reported as 150 nM.
O=S(=O)(Nc1ccc(O)cn1)C1CCN(c2ccc(Cl)cc2)CC1 [Example 68, 1-(4-chlorophenyl)-N-(5-hydroxypyridin-2-yl)piperidine-4-sulfonamide] was tested, and the inhibition at 0.5 µM was 92.4% and the IC50 was 85 nM.
In the case of O=C(Nc1ccc(O)cn1)N1CCCN(c2ccc(Cl)cn2)CC1 [Example 85, 4-(5-chloropyridin-2-yl)-N-(5-hydroxypyridin-2-yl)-1,4-diazepane-1-carboxamide], the IC50 is reported as 55 nM.
O=C(Nc1ccc(O)cn1)OC1CCN(c2ccccc2)CC1 [Example 44, 1-Phenylpiperidin-4-yl N-(5-hydroxypyridin-2-yl)carbamate] showed an inhibition at 0.5 µM of 95% and an IC50 of 8 nM.
For O=S(=O)(Nc1ccc(O)cn1)C1CCN(c2ccc(Cl)cn2)CC1 [Example 67, 1-(5-chloropyridin-2-yl)-N-(5-hydroxypyridin-2-yl)piperidine-4-sulfonamide], the inhibition at 0.5 µM was 85.3%.
N#Cc1ccc(N2CCN(C(=O)Nc3ccc(O)cn3)CC2)cc1 [Example 27, 4-(4-cyanophenyl)-N-(5-hydroxypyridin-2-yl)piperazine-1-carboxamide] showed an IC50 of 11 nM.
Work on CC(C)c1ccc(S(=O)(=O)Nc2ccc(O)cn2)cc1 [Example 61, N-(5-Hydroxypyridin-2-yl)-4-(propan-2-yl)benzene-1-sulfonamide] yielded an inhibition at 0.5 µM of 37.5%.
In the case of O=C(Nc1ccc(O)cn1)N1CCN(Cc2ccccc2)CC1 [Example 37, 4-benzyl-N-(5-hydroxypyridin-2-yl)piperazine-1-carboxamide], the inhibition at 0.5 µM is reported as 80.7%.
In the case of O=C(Nc1ccc(O)cn1)OC1CCN(c2ccc(C(F)(F)F)cn2)CC1 [Example 60, 1-[5-(trifluoromethyl)pyridin-2-yl]piperidin-4-yl N-(5-hydroxypyridin-2-yl)carbamate], the inhibition at 0.5 µM is reported as 96% and the IC50 is reported as 3 nM.
COc1ccc(C2CCN(C(=O)Nc3ccc(O)cn3)CC2)cc1 [Example 6, N-(5-Hydroxypyridin-2-yl)-4-(4-methoxyphenyl)piperidine-1-carboxamide] was tested, and the inhibition at 0.5 µM was 81.8% and the IC50 was 69 nM.
In the case of O=C(Nc1ccc(O)cn1)OC1CCN(c2ccc(C(F)(F)F)cc2)CC1 [Example 57, 1-[4-(trifluoromethyl)phenyl] piperidin-4-yl N-(5-hydroxypyridin-2-yl) carbamate], the inhibition at 0.5 µM is reported as 95.5% and the IC50 is reported as 1 nM.
Work on O=C(Nc1ccc(O)cn1)N1CCN(c2ccccc2)CC1 [Example 3, N-(5-Hydroxypyridin-2-yl)-4-phenylpiperazine-1-carboxamide] yielded an inhibition at 0.5 µM of 87.9% and an IC50 of 53 nM.
Work on O=C(Nc1ccc(O)cn1)NC1CCCN(c2ccc(F)cc2)C1 (stereo not drawn) [Example 47, 1-[1-(4-fluorophenyl)piperidin-3-yl]-3-(5-hydroxypyridin-2-yl)urea] yielded an inhibition at 0.5 µM of 51.8%.
O=S(=O)(Nc1ccc(O)cn1)C1CCN(c2ccccc2)CC1 [Example 64, N-(5-hydroxypyridin-2-yl)-1-phenylpiperidine-4-sulfonamide] was tested, and the inhibition at 0.5 µM was 19.2%.
For Cn1ncc2c(N3CCN(C(=O)Nc4ccc(O)cn4)CC3)cccc21 [Example 81, N-(5-hydroxypyridin-2-yl)-4-(1-methyl-1H-indazol-4-yl)piperazine-1-carboxamide], the inhibition at 0.5 µM was 77.9%.
O=C(Nc1ccc(O)cn1)NC1CCN(c2ccccc2)CC1 [Example 32, 3-(5-hydroxypyridin-2-yl)-1-(1-phenylpiperidin-4-yl)urea] showed an IC50 of 180 nM.
O=C(NCc1ccc(Cl)cc1)Nc1ccc(O)cn1 [Example 76, 1-[(4-chlorophenyl)methyl]-3-(5-hydroxypyridin-2-yl)urea] gave an inhibition at 0.5 µM of 75.1%.
Compound O=C(Nc1ccc(O)cn1)N1CCN(c2ccc(OC(F)(F)F)cn2)CC1 [Example 46, N-(5-hydroxypyridin-2-yl)-4-[5-(trifluoromethoxy)pyridin-2-yl]piperazine-1-carboxamide] has an inhibition at 0.5 µM of 94.5% and an IC50 of 7 nM.
Work on Cn1ncc2ccc(N3CCN(C(=O)Nc4ccc(O)cn4)CC3)cc21 [Example 82, N-(5-hydroxypyridin-2-yl)-4-(1-methyl-1H-indazol-6-yl)piperazine-1-carboxamide] yielded an inhibition at 0.5 µM of 78.4%.
